Where “and” joins values, the source holds several entries; their conditions need not be identical. Equal entries are not always repeated. Entries after “also recorded” stand apart in the source; their conditions may differ.
Tests used:
[1] = test system: corn seeds; assay: Phytotoxicity: cold test germination rate (CT) of treated corn seeds; conditions: for ΔCT: vs no Bitrex
Experimental: In order to evaluate the phytotoxicity of different corn seed treatments, safety tests were conducted. Germination rates of corn seeds treated with various concentrations of denatonium benzoate (Bitrex®) [in g per unit, where 1 unit is 50.000 seeds] were counted after five days at 25° C. Cold test germination rates (CT) were counted after 7 days at 10° C. and 5 days at 25° C. The treatments were compared to untreated seeds.
KF=germination rates counted after 5 days at 25° C. and CT=cold test germination rates counted after 7 days at 10° C. and 5 days at 25° C.

[2] = test system: wireworm of genus Agriotes; assay: Wireworm field trial in Italy: insect damage (DAMINS); assay type: in vivo
Excerpt: Evaluation took place at emergence (E), at V3 stage (=3 leaves unfolded) and at V5 stage (=5 leaves unfolded). The following characteristics have been phenotyped: phytotoxicity (PHYGEN) at stage E, V3 and V5 in % per plot, vigor (VIGOR) at stage E, V3 and V5 in ratings from 1-10 (10 is best), insect damage (DAMINS) at stage V5 in plants per row (left DAMINS column in Table 7) and in % per row (right DAMINS column in Table 7).

[3] = test system: corvid; assay: Additional bird repellent field trials at three locations in Germany, plant stand counts; assay type: in vivo, Corvus; conditions: corn seed, denatonium benzoate 1 g/50.000 seeds
Excerpt: The bird repellent effect of denatonium benzoate has further been evaluated in additional field trials at three different location in Germany. Denatonium benzoate alone (DNB) or denatonium benzoate in combination with a solution of micronutrients (DNB+HA450) mixed with a sticker have been applied to the seeds. Denatonium benzoate has been applied in a concentration of 1 g/50.000 seeds. Three chemical references have been included in the trials: Korit (active substance: Ziram), Curb Crop Garden Powder with Sphere's formulation (active substance: aluminium ammonium sulphate) and Schwefal (active substance: organic sulfur). As negative control untreated seed has been used.
Plant stand counts have been assessed and summarized. […] Results of earlier field trials have been confirmed.

[4] = test system: crows; conditions: wheat seed treatment; cited from earlier work
[5] = test system: wireworm of genus Agriotes; assay: Wireworm repellent pot assay on corn in climate chamber; assay type: in vivo; conditions: climate chamber 18° C. day/12° C. night; eighteen days after sowing
Experimental: The denatonium benzoate (Bitrex) was tested in concentrations of 0.5 g/unit (wherein 1 unit=50.000 seeds), 1 g/unit and 5 g/unit, either without any other plant protection product (variants 3 and 4) or with RedigoM (active ingredients 100 g/l Prothioconazole (PRO) and 20 g/l Metalaxyl (MTL); (variants 6-8). Sticker was always Sepiret 9290 red, whereby 30 ml/unit has been applied. Variant 1 is the negative control wherein no treatment of the seeds took place, variant 2 is another control only treated with the sticker. Variant 5 is RedigoM and sticker without Bitrex. Variants 9 and 10 serve as positive control. Beside RedigoM and the sticker, the seeds have been treated with either with Force 20 CS (active ingredient: tefluthrin (TEF); or with Poncho® 600 (active ingredient: clothianidin (CLO). Both Force 20 CS and Poncho® 600 are standard treatments against wireworm infestation. All testing were conducted on corn variety Amavit of KWS SAAT SE & Co. KGaA.
Testing has been repeated in climate chambers in order to ensure high humidity and moderate temperatures which results in optimal environmental condition for the wireworm. Thereby, a high level of insect pressure on the seeded corn should be simulated. […]
Eighteen days after sowing the plant biomass (Table 6) as well as seed damage (FIG. 4B; Table 6) were assessed.

[6] = ø of varieties and chemicals, Bitrex 0.2 g/u
[7] = ø of varieties and chemicals, Bitrex 0.5 g/u
[8] = ø of varieties and chemicals, Bitrex 1.0 g/u
[9] = ø of varieties and chemicals, Bitrex 2.0 g/u
[10] = ø of varieties and chemicals, Bitrex 5.0 g/u
[11] = ø of varieties, chemical no, Bitrex 0.2 g/u
[12] = ø of varieties, chemical no, Bitrex 0.5 g/u
[13] = ø of varieties, chemical no, Bitrex 1.0 g/u
[14] = ø of varieties, chemical no, Bitrex 2.0 g/u
[15] = ø of varieties, chemical no, Bitrex 5.0 g/u
[16] = ø of varieties, with MaximXL, Bitrex 0.2 g/u
[17] = ø of varieties, with MaximXL, Bitrex 0.5 g/u
[18] = ø of varieties, with MaximXL, Bitrex 1.0 g/u
[19] = ø of varieties, with MaximXL, Bitrex 2.0 g/u
[20] = ø of varieties, with MaximXL, Bitrex 5.0 g/u
[21] = ø of varieties, with RedigoM, Bitrex 0.2 g/u
[22] = ø of varieties, with RedigoM, Bitrex 0.5 g/u
[23] = ø of varieties, with RedigoM, Bitrex 1.0 g/u
[24] = ø of varieties, with RedigoM, Bitrex 2.0 g/u
[25] = ø of varieties, with RedigoM, Bitrex 5.0 g/u

Q: For `CC[N+](CC)(CC(=O)Nc1c(C)cccc1C)Cc1ccccc1.O=C([O-])c1ccccc1` [Bitrex, N-Benzyl-2-(2,6-dimethylanilino)-N, N-diethyl-2-oxoethan-1-aminium benzoate], which ΔCT ([1]; corn KXB6432, with MaximXL, Bitrex 2.0 g/u) is on record?
A: −2.5%

Q: And the ΔCT ([1]; corn KXB6432, with MaximXL, Bitrex 5.0 g/u)?
A: 0.0%

Q: What about the ΔCT ([1]; corn KXB6432, with RedigoM, Bitrex 0.2 g/u) of the same compound?
A: −0.5%

Q: And the ΔCT ([1]; corn KXB6432, with RedigoM, Bitrex 0.5 g/u)?
A: −1.0%

Q: What about the ΔCT ([1]; corn KXB6432, with RedigoM, Bitrex 1.0 g/u) of the same compound?
A: 2.0%

Q: What about the ΔCT ([1]; corn KXB6432, with RedigoM, Bitrex 2.0 g/u) of the same compound?
A: 1.0%

Q: And the ΔCT ([1]; corn KXB6432, with RedigoM, Bitrex 5.0 g/u)?
A: −1.0%

Q: What about the ΔCT [1, 6] of the same compound?
A: 1.8%

Q: And the ΔCT [1, 7]?
A: 1.3%

Q: What about the ΔCT [1, 8] of the same compound?
A: 2.4%

Q: What about the ΔCT [1, 9] of the same compound?
A: 0.3%

Q: And the ΔCT [1, 10]?
A: 1.1%

Q: And the ΔCT [1, 11]?
A: 5.8%

Q: And the ΔCT [1, 12]?
A: 4.3%

Q: And the ΔCT [1, 13]?
A: 7.2%

Q: What about the ΔCT [1, 14] of the same compound?
A: 2.8%

Q: And the ΔCT [1, 15]?
A: 4.5%

Q: What about the ΔCT [1, 16] of the same compound?
A: −0.5%

Q: And the ΔCT [1, 17]?
A: −0.7%

Q: And the ΔCT [1, 18]?
A: −2.0%

Q: And the ΔCT [1, 19]?
A: −1.8%

Q: What about the ΔCT [1, 20] of the same compound?
A: −0.5%

Q: And the ΔCT [1, 21]?
A: 0.0%

Q: And the ΔCT [1, 22]?
A: 0.5%

Q: And the ΔCT [1, 23]?
A: 2.0%

Q: And the ΔCT [1, 24]?
A: −0.2%

Q: And the ΔCT [1, 25]?
A: −0.7%

Q: And the “CT cold test germination rate, 7 days at 10° C. and 5 days at 25° C.” value (“CT cold test germination rate, 7 days” for short) [1, 6]?
A: 97.0%

Q: And the “CT cold test germination rate, 7 days” value [1, 7]?
A: 96.6%

Q: And the “CT cold test germination rate, 7 days” value [1, 8]?
A: 97.7%

Q: And the “CT cold test germination rate, 7 days” value [1, 9]?
A: 95.5%

Q: What about the “CT cold test germination rate, 7 days” value [1, 10] of the same compound?
A: 96.3%

Q: What about the “CT cold test germination rate, 7 days” value [1, 11] of the same compound?
A: 94.8%

Q: And the “CT cold test germination rate, 7 days” value [1, 12]?
A: 93.3%

Q: And the “CT cold test germination rate, 7 days” value [1, 13]?
A: 96.3%

Q: And the “CT cold test germination rate, 7 days” value [1, 14]?
A: 91.8%

Q: And the “CT cold test germination rate, 7 days” value [1, 15]?
A: 93.5%

Q: And the “CT cold test germination rate, 7 days” value [1, 16]?
A: 99.0%

Q: What about the “CT cold test germination rate, 7 days” value [1, 17] of the same compound?
A: 98.8%

Q: And the “CT cold test germination rate, 7 days” value [1, 18]?
A: 97.5%

Q: What about the “CT cold test germination rate, 7 days” value [1, 19] of the same compound?
A: 97.8%

Q: And the “CT cold test germination rate, 7 days” value [1, 20]?
A: 99.0%

Q: And the “CT cold test germination rate, 7 days” value [1, 21]?
A: 97.3%

Q: And the “CT cold test germination rate, 7 days” value [1, 22]?
A: 97.8%

Q: What about the “CT cold test germination rate, 7 days” value [1, 23] of the same compound?
A: 99.3%

Q: What about the “CT cold test germination rate, 7 days” value [1, 24] of the same compound?
A: 97.0%

Q: And the “CT cold test germination rate, 7 days” value [1, 25]?
A: 96.5%

Q: And the “DAMINS insect damage, stage V5” value ([2]; 5 g Bitrex per 50,000 seeds)?
A: 6.8 plants per row and 5.62 % per row

Q: And the “DAMINS insect damage, stage V5” value ([2]; 10 g Bitrex per 50,000 seeds)?
A: 7.3 plants per row and 6.07 % per row

Q: And the “DAMINS insect damage, stage V5” value ([2]; 20 g Bitrex per 50,000 seeds)?
A: 5.8 plants per row and 4.79 % per row

Q: What about the “efficiency as corvid repellent for corn” value [3] of the same compound?
A: excellent effect; also recorded: comparable with the best bird repellents like Korit and Sphere

Q: What about the “corvid repellent effect in wheat” value [4] of the same compound?
A: only provided a modest improvement

Q: And the “effect on development of biomass, seed damages and seedling damages” value [5]?
A: positive effect
